Entries after “also recorded” stand apart in the source; their conditions may differ. Where two headings read alike, the source gives them in different places.
How the values were obtained:
mushroom tyrosinase [1] = biological target: T1, mushroom tyrosinase (Agaricus bisporus, UniProt C7FF04); test: Mushroom tyrosinase inhibition assay (L-DOPA as substrate); type: biochemical
Description: All test samples were first dissolved in DMSO at 50 mM and diluted to the required concentrations. First, […] of tyrosinase (0.5 mg ml) was mixed with 160 μl of 50 mM phosphate buffer (pH = 6.8) in 96-well microplates and then 10 μl of different concentration of the test sample was added. […] DMSO without test compounds and kojic acid were used as the control and positive control respectively. The tyrosinase activity without inhibitor was defined as 100%. Each concentration was analyzed in three independent experiments run in triplicate.

mushroom tyrosinase [2] = biological target: T1, mushroom tyrosinase; test: Kinetic study of tyrosinase inhibition (Lineweaver-Burk plot, L-DOPA as substrate); type: biochemical; conditions: for Vm: L-DOPA 0.25-1 mM
Description: The inhibition constants, Ki, and Vm for tyrosinase inhibitors were determined by fitting the kinetic data to a competitive, noncompetitive, or mixed inhibition model by nonlinear regression analysis using GraphPad Prism.
To determine the inhibition kinetics of vaniline-benzylidenehydrazine a series of experiments were performed. Different concentrations of the 4i (0, 10 and 25 µM) was chosen to get a series of straight lines. Pre-incubation and measurement time were the same as discussed in mushroom tyrosinase inhibition assay protocol. The maximal velocity (Vmax) and the Michaelis constant (Km) of the tyrosinase activity were determined by the Line weaver Burk plot at various concentrations of L-DOPA (0.25, 0.5, 0.75 and 1 mM) as a substrate. The inhibition type of the enzyme was assayed by Line weaver Burk plots of inverse of velocities (1/V) versus inverse of substrate concentrations 1/[S] mM.

[3] = L-DOPA as the substrate, mean ± SEM of three to five independent experiments, read-out: IC50 against tyrosinase enzyme

T1 sequence (C7FF04 1-392): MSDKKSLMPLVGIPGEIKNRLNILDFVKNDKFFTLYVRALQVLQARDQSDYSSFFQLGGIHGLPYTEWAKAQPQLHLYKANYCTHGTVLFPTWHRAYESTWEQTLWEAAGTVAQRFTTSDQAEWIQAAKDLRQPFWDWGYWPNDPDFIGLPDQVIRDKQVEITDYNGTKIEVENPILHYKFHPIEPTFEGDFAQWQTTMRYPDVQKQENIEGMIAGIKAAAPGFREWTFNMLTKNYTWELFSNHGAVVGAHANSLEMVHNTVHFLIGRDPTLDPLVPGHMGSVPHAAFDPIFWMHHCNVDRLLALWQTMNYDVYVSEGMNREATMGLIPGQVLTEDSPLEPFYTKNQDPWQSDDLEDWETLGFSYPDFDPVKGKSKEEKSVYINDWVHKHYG

| SMILES | IC50 (mushroom tyrosinase [1]; [3]) [µM] | melting point [°C] | Vm (mushroom tyrosinase [2]; 4i at 10 µM) [OD/Min] | Vm (mushroom tyrosinase [2]; 4i at 25 µM) [OD/Min] | Type of inhibition (mushroom tyrosinase [2]; Lineweaver-Burk plot, 4i at 0, 10 and 25 µM) | IC50 (mushroom tyrosinase [1]) [µM] |
| --- | --- | --- | --- | --- | --- | --- |
| COc1cc(C(=O)N/N=C/c2ccc(Br)cc2)ccc1O [Compound 4e, (E)-Nʹ-(4-bromobenzylidene)-4-hydroxy-3-methoxybenzohydrazide] | 1.95 ± 2.34 | 115 |  |  |  |  |
| COc1ccc(/C=N/NC(=O)c2ccc(O)c(OC)c2)cc1 [Compound 4c, (E)-4-hydroxy-3-methoxy-Nʹ-(4-methoxybenzylidene)benzohydrazide] | 35.6 ± 2.8 | 110 |  |  |  |  |
| COc1cc(C(=O)N/N=C/c2ccc(O)cc2)ccc1O [Compound 4b, (E)-4-hydroxy-Nʹ-(4-hydroxybenzylidene)-3-methoxybenzohydrazide] | 15.2 ± 1.34 | 256 |  |  |  |  |
| COc1cc(C(=O)N/N=C/c2ccc(O)cc2O)ccc1O [Compound 4a, (E)-Nʹ-(2,4-dihydroxybenzylidene)-4-hydroxy-3-methoxybenzohydrazide] | 37.1 ± 1.02 | 243 |  |  |  |  |
| COc1cc(C(=O)N/N=C/c2cccc([N+](=O)[O-])c2)ccc1O [Compound 4k, (E)-4-hydroxy-3-methoxy-Nʹ-(3-nitrobenzylidene)benzohydrazide] | 5.84 ± 1.9 | 151 |  |  |  |  |
| CCOc1cc(/C=N/NC(=O)c2ccc(O)c(OC)c2)ccc1O [Compound 4i, (E)-Nʹ-(3-ethoxy-4-hydroxybenzylidene)-4-hydroxy-3-methoxybenzohydrazide] |  |  | 0.18 | 0.17 | uncompetitive inhibition; also recorded: uncompetitive inhibitor | 1.58 |

More lines, main results first:

| IC50 (mushroom tyrosinase [1]; [3]) [µM] | melting point [°C] | SMILES | Vm (mushroom tyrosinase [2]; 4i at 10 µM) [OD/Min] | Vm (mushroom tyrosinase [2]; 4i at 25 µM) [OD/Min] | Type of inhibition (mushroom tyrosinase [2]; Lineweaver-Burk plot, 4i at 0, 10 and 25 µM) | IC50 (mushroom tyrosinase [1]) [µM] |
| --- | --- | --- | --- | --- | --- | --- |
| 10 ± 1.6 | 98 | COc1ccc(/C=N/NC(=O)c2ccc(O)c(OC)c2)cc1O [Compound 4h, (E)-4-hydroxy-Nʹ-(3-hydroxy-4-methoxybenzylidene)-3-methoxybenzohydrazide] |  |  |  |  |
| 20.9 ± 2.09 | 231 | COc1cc(C(=O)N/N=C/c2ccc(OC)c(OC)c2)ccc1O [Compound 4d, (E)-Nʹ-(3,4-dimethoxybenzylidene)-4-hydroxy-3-methoxy benzohydrazide] |  |  |  |  |
| 4.58 | 151 | COc1cc(C(=O)N/N=C/c2cc(OC)c(O)c(OC)c2)ccc1O [Compound 4g, (E)-4-hydroxy-Nʹ-(4-hydroxy-3,5-dimethoxybenzylidene)-3-methoxy benzohydrazide] |  |  |  |  |
| 17 ± 2.03 | 151 | COc1cc(C(=O)N/N=C/c2ccccc2[N+](=O)[O-])ccc1O [Compound 4j, (E)-4-hydroxy-3-methoxy-Nʹ-(2-nitrobenzylidene)benzohydrazide] |  |  |  |  |
| 29.1 ± 0.89 | 195 | COc1cc(C(=O)N/N=C/c2ccc([N+](=O)[O-])cc2)ccc1O [Compound 4f, (E)-4-hydroxy-3-methoxy-Nʹ-(4-nitrobenzylidene)benzohydrazide] |  |  |  |  |
